pIC50: −log10 of the molar value.
Test system: MEK
Assay: Cellular Assay for Measuring MEK Inhibition (inhibition of ERK phosphorylation in C26 cells, Western blot)
Assay type: cell-based, murine
Settings: for % Inhibition @ 0.1 μM / % Inhibition @ 1 μM / % Inhibition @ 10 μM: ERK phosphorylation in C26 cells; for pIC50: inhibition of ERK phosphorylation in murine colon 26 (C26) carcinoma cells, determined graphically from dose response curve
Experimental: The evaluation of the compounds as MEK inhibitors was performed in an assay that measures their ability to inhibit phosphorylation of MAP kinase […]) in murine colon 26 (C26) carcinoma cells. Since ERK1 and ERK2 represent the only known substrates for MEK, measurement of inhibition of ERK phosphorylation in cells provides direct readout of cellular MEK inhibition by the compounds of the invention. Briefly, the assay involves treating exponentially growing C26 cells with varying concentrations of the test compound (or vehicle control) for […] at 37° C. Cells are then rinsed free of compound/vehicle and lysed in a solution containing 70 mM NaCl, 50 mM glycerol phosphate, 10 mM HEPES, pH 7.4, 1% Triton X-100, 1 mM Na3VO4, 100 μM PMSF, 10 μM leupeptin and 10 μM pepstatin. Supernatants are then subjected to gel electrophoresis and Western blotting using a primary antibody recognizing dually phosphorylated ERK1 and ERK2. To evaluate total MAPK levels, blots were subsequently ‘stripped’ and re-probed with a 1:1 mixture of polyclonal antibodies recognizing unphosphorylated ERK1 and ERK2.

| pIC50 | SMILES | % Inhibition @ 0.1 μM [%] | % Inhibition @ 1 μM [%] | % Inhibition @ 10 μM [%] |
| --- | --- | --- | --- | --- |
|  | CCC(O)CONC(=O)c1cc(Cl)c(F)c(F)c1Nc1ccc(I)cc1F (centres unmarked) [Example 114, 5-Chloro-3,4-difluoro-2-(2-fluoro-4-iodo-phenylamino)-N-(2-hydroxy-butoxy)-benzamide] | 90.5 | 97.3 |  |
|  | CCC(O)CONC(=O)c1cc(F)c(F)cc1Nc1ccc(I)cc1F (centres unmarked) [Example 115, 4,5-Difluoro-2-(2-fluoro-4-iodo-phenylamino)-N-(2-hydroxy-butoxy)-benzamide] | 94.8 | 98.5 |  |
|  | CCC(O)CONC(=O)c1cc(Cl)c(F)c(F)c1Nc1ccc(F)cc1F (centres unmarked) [Example 116, 5-Chloro-2-(2,4-difluoro-phenylamino)-3,4-difluoro-N-(2-hydroxy-butoxy)-benzamide] |  | 62.8 | 75.8 |
|  | CCC(O)CONC(=O)c1ccc(F)c(F)c1Nc1ccc(F)cc1F (centres unmarked) [Example 117, 2-(2,4-Difluoro-phenylamino)-3,4-difluoro-N-(2-hydroxy-butoxy)-benzamide] | 0 | 66.7 | 86.9 |
|  | CCC(O)CONC(=O)c1ccc(F)c(F)c1Nc1ccc(Br)cc1F (centres unmarked) [Example 118, 2-(4-Bromo-2-fluoro-phenylamino)-3,4-difluoro-N-(2-hydroxy-butoxy)-benzamide] | 74.6 | 95.6 |  |
|  | Cc1cc(I)ccc1Nc1c(C(=O)NOC(C)CO)cc(Cl)c(F)c1F (centres unmarked) [Example 119, 5-Chloro-3,4-difluoro-N-(2-hydroxy-1-methyl-ethoxy)-2-(4-iodo-2-methyl-phenylamino)-benzamide] | 87.4 | 97.9 |  |
| 7.85 | CC(CO)ONC(=O)c1ccc(F)c(F)c1Nc1ccc(I)cc1Cl (centres unmarked) [Example 120, 2-(2-Chloro-4-iodo-phenylamino)-3,4-difluoro-N-(2-hydroxy-1-methyl-ethoxy)-benzamide] |  |  |  |
|  | CC(CO)ONC(=O)c1cc(F)c(F)c(F)c1Nc1ccc(I)cc1Cl (centres unmarked) [Example 121, 2-(2-Chloro-4-iodo-phenylamino)-3,4,5-trifluoro-N-(2-hydroxy-1-methyl-ethoxy)-benzamide] | 46.9 | 85.5 |  |
|  | Cc1cc(I)ccc1Nc1c(C(=O)NOC(C)CO)cc(F)c(F)c1F (centres unmarked) [Example 122, 3,4,5-Trifluoro-N-(2-hydroxy-1-methyl-ethoxy)-2-(4-iodo-2-methyl-phenylamino)-benzamide] | 49.6 | 87.3 |  |
| 7.68 | CC(CO)ONC(=O)c1cc(Br)c(F)c(F)c1Nc1ccc(I)cc1Cl (centres unmarked) [Example 123, 5-Bromo-2-(2-chloro-4-iodo-phenylamino)-3,4-difluoro-N-(2-hydroxy-1-methyl-ethoxy)-benzamide] |  |  |  |
|  | Cc1cc(I)ccc1Nc1c(C(=O)NOC(C)CO)cc(Br)c(F)c1F (centres unmarked) [Example 124, 5-Bromo-3,4-difluoro-N-(2-hydroxy-1-methyl-ethoxy)-2-(4-iodo-2-methyl-phenylamino)-benzamide] | 78 | 96.9 |  |
|  | CC(CO)ONC(=O)c1ccc(F)c(F)c1Nc1ccc(Cl)cc1F (centres unmarked) [Example 125, 2-(4-Chloro-2-fluoro-phenylamino)-3,4-difluoro-N-(2-hydroxy-1-methyl-ethoxy)-benzamide] | 9.1 | 89 |  |
| 7.59 | Cc1cc(I)ccc1Nc1c(C(=O)NOC(C)CO)ccc(F)c1F (centres unmarked) [Example 126, 3,4-Difluoro-N-(2-hydroxy-1-methyl-ethoxy)-2-(4-iodo-2-methyl-phenylamino)-benzamide] |  |  |  |
| 7.60 | CC(CO)ONC(=O)c1cc(Cl)c(F)c(F)c1Nc1ccc(I)cc1Cl (centres unmarked) [Example 127, 5-Chloro-2-(2-chloro-4-iodo-phenylamino)-3,4-difluoro-N-(2-hydroxy-1-methyl-ethoxy)-benzamide] |  |  |  |
| 8.05 | CC(CO)ONC(=O)c1ccc(F)c(F)c1Nc1ccc(I)cc1F (centres unmarked) [Example 128, 3,4-Difluoro-2-(2-fluoro-4-iodo-phenylamino)-N-(2-hydroxy-1-methyl-ethoxy)-benzamide] |  |  |  |
